In PMC12658903 (RSC Medicinal Chemistry, 2025):

System: SARS-CoV-2 (D614G)
Assay type: cell-based
Conditions: 10 µM

With `CN(C)C(=O)COC(=O)Cc1ccc(OC(=O)c2ccc(NC(=N)N)cc2)cc1` [Camostat, camostat] the “Percentage of infection inhibition” value was 85%.
